System: electrical activity of the prefrontal cortex
Assay: Quantitative EEG spectral analysis (FFT relative powers) in conscious rats
Type: in vivo, Wistar rats
Details: for actual EEG effect: MFA 0.4 mg/kg ip; for increase in the relative powers in the prefrontal cortex: paroxetine 0.5 mg/kg ip alone
Experimental: A group of 6 conscious Wistar rats was pre-implanted with 6 bipolar bilateral electrodes (2 frontal, 2 anterior hippocampic, 2 posterior hippocampic).
Different treatments were conducted by circular combination of 6 rats by treatment (psychotropic treatment alone, anti-connexin treatment alone, anti-connexin+psychotropic combination treatment). The injection of meclofenamic acid (Sigma) is performed by slow submeningeal injection (80 ng/kg, 4.5 pg/second) or intraperitoneally at different doses. The injection of glycyrrhetinic acid (Sigma) is performed by submeningeal injection (80 ng/kg). The injection of clozapine (Sigma) is performed intraperitoneally (0.2 mg/kg). The injection of paroxetine (Sigma) is performed intraperitoneally (0.5 mg/kg). The injection of modafinil (Cephalon) is performed intraperitoneally (125 mg/kg and 250 mg/kg).
The EEG measurements were performed on the different groups of conscious rats (previously implanted and habituated) by 2-hour recordings after injection. The spectral analysis performed by Fourier transform (FFT) makes it possible to obtain relative powers, Hertz-by-Hertz and second-by-second. The FFT data is then averaged minute-by-minute and associated with the solvent control produced the day prior to the recording under strictly identical experimental conditions. The relative spectral powers of the left and right prefrontal cortices are then averaged by 5-minute periods, averaged by groups of 12 5-minute repetitions and represented hour-by-hour.
The data obtained from the relative quantitative EEG analysis of the effects of the different drugs administered individually (psychotropic alone or anti-connexin agents alone), presented in the examples, were subjected to a statistical analysis by analysis of variance (ANOVA) with three factors: “Frequency” (by Hz), “Time” (first and second hour by 12 averaged 5-minute repetitions) and “Animal” (6 different animals for each treatment). For the combinations of psychotropic and anti-connexin agents presented in the examples, a fourth ANOVA factor was introduced: “Anti-connexin combination”. The significance threshold of the relative power modifications for a given frequency for a psychotropic drug alone with respect to the control (solvent of the psychotropic agent) or a psychotropic drug in combination with an anti-connexin with respect to the psychotropic agent administered alone (in favor of a relative power increase or a decrease) was chosen at a value of P<0.05.

[1] = diazepam 1 mg/kg ip alone, first hour

Cc1ccc(Cl)c(Nc2ccccc2C(=O)O)c1Cl [MFA, Benzoic 2-[(2,6-di-chloro-3-phenyl)amino] acid]
increase in the EEG potential / synchronization of the prefrontal cerebral activity (MFA 80 ng/kg submeningeal, 8-10 Hz, first hour extending to second hour): 140%
actual EEG effect (first hour): no significant modification
actual EEG effect (second hour): slight significant increase
synchronization of the prefrontal cerebral activity at the second hour (MFA central administration (80 ng/kg submeningeal), second hour): decreases
synchronization of the prefrontal cerebral activity at the second hour (MFA peripheral administration (2.45 mg/kg ip), second hour): significant increase in synchronization continues at the second hour

CC(NC(C)(C)C)C(=O)c1cccc(Cl)c1 (stereo not drawn) [bupropion]
increase in power of the 8-10 Hz components (bupropion 0.16 mg/kg ip alone, first hour): around 180%
increase in power of the 8-10 Hz components (bupropion 0.8 mg/kg ip alone, first hour): ~450%
increase in power of the 8-10 Hz components (bupropion 4 mg/kg ip alone, first hour): ~280%

CN1CCN(C2=Nc3cc(Cl)ccc3Nc3ccccc32)CC1 [clozapine]
increase in the EEG potential / synchronization of the prefrontal cerebral activity (clozapine 0.2 mg/kg ip alone, 8-10 Hz, from first hour extending to second hour): 200%

CN1C(=O)CN=C(c2ccccc2)c2cc(Cl)ccc21 [diazepam]
decrease in power of the 4-7 Hz components [1]: around 25%
increase in the power of the 11-30 Hz components [1]: around 120%

CN(C)CCC[C@@]1(c2ccc(F)cc2)OCc2cc(C#N)ccc21 [escitalopram]
increase in power of the 6-8 Hz components (escitalopram 0.8 mg/kg ip alone, first hour): around 150%
increase in power of the 6-8 Hz components (escitalopram 4 mg/kg ip alone, first hour): ~200%

NC(=O)C[S+]([O-])C(c1ccccc1)c1ccccc1 (stereo not drawn) [modafinil]
increase in the EEG potential / synchronization of the prefrontal cerebral activity (modafinil 125 mg/kg ip alone, 2-5 Hz): 120%
increase in the EEG potential / synchronization of the prefrontal cerebral activity (modafinil 250 mg/kg ip alone, 2-5 Hz): 300%

Fc1ccc([C@@H]2CCNC[C@H]2COc2ccc3c(c2)OCO3)cc1 [paroxetine]
increase in the relative powers in the prefrontal cortex (8-10 Hz, first hour): around 200%
increase in the relative powers in the prefrontal cortex (8-10 Hz, second hour): around 300%

CN[C@H]1CC[C@@H](c2ccc(Cl)c(Cl)c2)c2ccccc21 [sertraline]
increase in power of the 7-9 Hz components (sertraline 0.16 mg/kg ip alone, first hour): around 260%
increase in power of the 7-9 Hz components (sertraline 0.8 mg/kg ip alone, first hour): around 260%
increase in power of the same components at the second hour (sertraline 0.8 mg/kg ip alone, second hour): 900%
increase in power of the 7-9 Hz components (sertraline 4 mg/kg ip alone, first hour): ~200%
increase in power of the same components at the second hour (sertraline 4 mg/kg ip alone, second hour): 450%

COc1ccc(C(CN(C)C)C2(O)CCCCC2)cc1 (stereo not drawn) [venlafaxine]
increase in power of the 8-10 Hz components (venlafaxine 0.16 mg/kg ip alone, first hour): around 120%
increase in power of the 8-10 Hz components (venlafaxine 4 mg/kg ip alone, first hour): ~200%

— patent US11077080B2, “Use of anti-connexin agents for modulating the therapeutic effect of psychotropic drugs” (Commissariat A L'Energie Atomique Et Aux Energies …, priority 2008, dated 2021)
